Results from patent US8741851B2, “Peptides having antimicrobial activity” (Universiti Malaya, priority 2012, dated 2014).
Where no end group is shown, it is not given here.

Tests used:
[1] = test system: penicillin-resistant pneumococci; assay: broth microdilution MIC, penicillin-resistant pneumococci; assay type: cell-based, Streptococcus pneumoniae; conditions: 20 isolates; for ER (effective range of MIC): 5×10^5 cfu/ml
Excerpt: (§1) The antimicrobial peptides are thereafter tested using broth microdilution assay 5×10^5 cfu/ml against a total of 60 pneumococcal isolates (20 isolates for each penicillin-susceptible, penicilin-intermediate, and penicilin-resistant pneumococci) to determine their minimum inhibitory concentration (MIC).
(§2) The minimum inhibitory concentration of the antimicrobial peptide for Pro-His-Trp-Trp-Lys-Trp-Ala-Trp-Trp-His-His-Arg-Arg (SEQ ID NO:1), Lys-His-Trp-Trp-Lys-His-Asp-Trp-Trp-Arg-Trp-Arg-Arg (SEQ ID NO:2), and Ile-Leu-Trp-Trp-Leu-Leu-Ala-Trp-Trp-Arg-Trp-Pro-His (SEQ ID NO:3) are presented in Table 1. An effective range (ER) is defined as the range of the minimum inhibitory concentration to which the antimicrobial peptide produces detectable activity against the bacterial pathogens, whereas an effective percentage (EP) is the percentage of isolates inhibited with the effective range. From the Table 1, the SEQ ID NO:1 inhibited 95% penicillin-resistant pneumococci at the effective range of 62.5 to 250 μg/ml, 85% penicilin-intermediate pneumococci was inhibited at the effective range of 62.5 to 250 μg/ml, and 80% penicilin-susceptible pneumococci was inhibited at the effective range of 125 to 250 μg/ml. The SEQ ID NO:2 inhibited 100% of penicillin-resistant pneumococci at the effective range of 62.5 to 250 μg/ml, 95% penicilin-intermediate pneumococci was inhibited at the effective range of 125 to 250 μg/ml, and 95% penicilin-susceptible pneumococci was inhibited at the effective range of 62.5 to 250 μg/ml. […] However, the antipneumococcal activity is not detected for SEQ ID NO:3 up to the maximum concentration (250 μg/ml) tested.

[2] = test system: penicilin-intermediate pneumococci; assay: broth microdilution MIC, penicilin-intermediate pneumococci; assay type: cell-based, Streptococcus pneumoniae; conditions: 20 isolates; for ER (effective range of MIC): 5×10^5 cfu/ml
Excerpt: as §1, §2

[3] = test system: penicilin-susceptible pneumococci; assay: broth microdilution MIC, penicilin-susceptible pneumococci; assay type: cell-based, Streptococcus pneumoniae; conditions: 20 isolates; for ER (effective range of MIC): 5×10^5 cfu/ml
Excerpt: as §1, §2

Streptococcus pneumoniae = assay: broth microdilution MIC, all 60 pneumococcal isolates; assay type: cell-based; conditions: for Overall EP: all 60 pneumococcal isolates irrespective of penicillin susceptibility; for overall effective percentage relative to the indolicidin class of antimicrobial peptide: higher than indolicidin, irrespective of penicillin susceptibility
Excerpt: as §1, §2

Pseudomonas aeruginosa = assay: antimicrobial activity against bacterial pathogens; assay type: cell-based; conditions: Gram-negative
Acinetobacter baumannii = assay: antimicrobial activity against bacterial pathogens; assay type: cell-based; conditions: Gram-negative
Description: as §1
(§3) In a preferred embodiment, the SEQ ID NO:1 is weakly effective against Acinetobacter baumannii at 125 μg/ml only. The SEQ ID NO:2 has broader spectrum which effective against Acinetobacter baumannii, Staphylococcus aureus, methicillin-resistant Staphylococcus aureus, Escherichia coli, Enterococcus cloacae at 125 μg/ml respectively.

Escherichia coli = assay: antimicrobial activity against bacterial pathogens; assay type: cell-based; conditions: Gram-negative
Description: as §1, §3

Staphylococcus aureus = assay: antimicrobial activity against bacterial pathogens; assay type: cell-based; conditions: Gram-positive
Description: as §1, §3

[4] = test system: methicillin-resistant Staphylococcus aureus; assay: antimicrobial activity against bacterial pathogens; assay type: cell-based; conditions: Gram-positive
Description: as §1, §3

[5] = antimicrobial activity against bacterial pathogens; assay type: cell-based, Enterococcus cloacae; conditions: Gram-negative
Description: as §1, §3

Citrobacter spp. = assay: antimicrobial activity against bacterial pathogens; assay type: cell-based; conditions: Gram-negative
K. pneumoniae = assay: antimicrobial activity against bacterial pathogens; assay type: cell-based; conditions: Gram-negative

| Sequence | EP (effective percentage, isolates inhibited within ER) [1] [%] | ER (effective range of MIC) [1] [µg/mL] | EP (effective percentage, isolates inhibited within ER) [2] [%] | ER (effective range of MIC) [2] [µg/mL] | EP (effective percentage, isolates inhibited within ER) [3] [%] | ER (effective range of MIC) [3] [µg/mL] | Overall EP (Streptococcus pneumoniae) [%] | antimicrobial activity (inhibitory concentration) against P. aeruginosa (Pseudomonas aeruginosa) [µg/mL] | antimicrobial activity (inhibitory concentration) against A. baumannii (Acinetobacter baumannii) [µg/mL] | antimicrobial activity (inhibitory concentration) against E. coli (Escherichia coli) [µg/mL] | antimicrobial activity (inhibitory concentration) against S. aureus (Staphylococcus aureus) [µg/mL] | antimicrobial activity (inhibitory concentration) against methicillin-resistant S. aureus [4] [µg/mL] | antimicrobial activity (inhibitory concentration) against E. cloacae [5] [µg/mL] | antimicrobial activity (inhibitory concentration) against Citrobacter spp. (Citrobacter spp.) [µg/mL] | antimicrobial activity (inhibitory concentration) against K. pneumoniae (K. pneumoniae) [µg/mL] | antipneumococcal activity (Streptococcus pneumoniae; up to the maximum concentration (250 μg/ml) tested) | overall effective percentage relative to the indolicidin class of antimicrobial peptide (Streptococcus pneumoniae) |
| --- | --- | --- | --- | --- | --- | --- | --- | --- | --- | --- | --- | --- | --- | --- | --- | --- | --- |
| ILWWKWAWWRWRR [reference compound] | 45 | 62.5 to 250 | 30 | 125 to 250 | 65 | 31.25 to 250 | 46.7 | >250 | 125 | 250 | 62.5 | 31.25 | 125 | 62.5 | >250 | – | – |
| ILWWLLAWWRWPH [SEQ ID NO:3] | 0 | >250 | 0 | >250 | 0 | >250 | 0 | >250 | >250 | >250 | 7.81 | >250 | >250 | >250 | >250 | not detected | – |
| KHWWKHDWWRWRR [SEQ ID NO:2] | 100 | 62.5 to 250 | 95 | 125 to 250 | 95 | 62.5 to 250 | 96.7 | 62.5 | 125 | 125 | 125 | 125 | 125 | 31.25 | >250 | – | approximately two fold |
| PHWWKWAWWHHRR [SEQ ID NO:1] | 95 | 62.5 to 250 | 85 | 62.5 to 250 | 80 | 125 to 250 | 86.7 | >250 | 125 | >250 | >250 | >250 | >250 | >250 | >250 | – | approximately two fold |
